# Literature values in US11823773B2, “Nant cancer vaccine strategies” (Nant Holdings IP, LLC, priority 2018, dated 2023).
molecule,measurement,setting,value
rituximab: anti-CD20 antibody,response rate to single agent retreatment,"CD20-positive NHL; rituximab refractory (RR) patients, reasonable estimate, no trial data reported",< 5%
same,patients responding to retreatment,CD20-positive NHL; rituximab sensitive (RS) patients,approximately 40%
O=C(c1ccc(F)c(F)c1Nc1ccc(I)cc1F)N1CC(O)([C@@H]2CCCCN2)C1 [cobimetinib],PFS over vemurafenib treatment alone,advanced melanoma; in combination with vemurafenib,significant increase in PFS
CC(C)(C)c1nc(-c2cccc(NS(=O)(=O)c3c(F)cccc3F)c2F)c(-c2ccnc(N)n2)s1 [Dabrafenib],PFS compared to dacarbazine,"advanced melanoma; human, in vivo",improvement in PFS
